From PMC9050923, “6,N^2-Diaryl-1,3,5-triazine-2,4-diamines: synthesis, antiproliferative activity and 3D-QSAR modeling” (RSC Advances, 2020) come the findings set out here.

Common to all, as to type: cell-based
The subject of one series is SKBR-3. The series can be described thus: MTT assay, SKBR-3 breast cancer cells. Particulars: MTT; for viability at 10 µM: read-out: Percentage of cell viability SKBR-3. As for the experimental part: (§1) The prepared compounds 1–126 were tested on three breast cancer cell lines namely, MDA-MB231, SKBR-3 and MCF-7 using MTT assay. SKBR-3 and MCF-7 cell lines are estrogen and progesterone hormone positive cell lines often used as a model for the hormone therapy.[18] MDA-MB231 is triple negative breast cancer cell line, which is negative to estrogen and progesterone receptors and human epidermal growth factor receptor 2, a perfect model for chemotherapy.[18] Initially, all the prepared compounds 1–126 were tested on these three cancer cell lines at the screening concentration (10 μM) and percentage of cell viability was calculated 72 h after the treatment (Table 1).
(§2) The growth inhibitory effect of the compounds was determined on breast tumor cell line (MDA-MB231, SKBR-3 and MCF-7) at different concentrations with methotrexate and nilotinib as positive controls (Table 2).
(§3) The cytotoxic activity of 6,N^2-diaryl-1,3,5-triazine-2,4-diamines (1–126) was evaluated against three breast carcinoma cell lines (MDA-MB231, SKBR-3, and MCF-7) and normal breast cell line (MCF-10A) by MTT assay.[22] All cells were obtained from the American Type Culture Collection and were grown in 10% fetal bovine serum and 1% pen-strep antibiotic supplemented media (DMEM for MDA-MB231 and SKBR-3, RPMI for MCF-7, and MEGM for MCF-10A). For MTT assay, 20 000 to 75 000 cells per mL (based on the doubling time for each cell line) were seeded in 96 well plates and incubated for 24 h at 37 °C in 5% CO2 incubator. Then, compounds at different concentrations were added followed by the incubation at 37 °C for 72 h. After that, MTT solution (0.5 mg mL^−1) was added and the plates were incubated for another 4 h. The supernatant was then discarded and 100 μL of DMSO was added to each well. The plates were then read by Tecan NanoQuant (model: infinite m200 pro) plate reader and absorbance was measured at 570 nm. GI50 values were calculated using sigmoidal concentration–response curves (see ESI ^†) generated using the GraphPad Prism 7 program. Three independent experiments were carried out and the data were represented as mean of the three experiments.

The next series concerns MDA-MB231. As to the kind of experiment: MTT assay, MDA-MB231 breast cancer cells. Particulars: MTT; for viability at 10 µM / GI50: Homo sapiens, MDA-MB-231; for viability at 10 µM: read-out: Percentage of cell viability MDA-MB231; for GI50: 72 h, mean of three independent experiments ± SEM, read-out: GI50 (μM) ± SEM MDA-MB231. The protocol:
as §1, §2, §3

A further series has as its system MCF-7. The series can be described thus: MTT assay, MCF-7 breast cancer cells. The note with it: for viability at 10 µM: MCF7, 10 μM, read-out: Percentage of cell viability MCF-7. The protocol:
as §1, §2, §3

The mark [1] stands for this setting: Homo sapiens, SK-BR-3, 10 μM, 72 h after the treatment, mean of three independent experiments.
The mark [2] stands for this setting: 10 μM, 72 h after the treatment, mean of three independent experiments.
Setting [3] is: Homo sapiens, 72 h after the treatment, mean of three independent experiments.

Take `Nc1nc(Nc2ccc(Cl)cc2)nc(-c2ccc(C(F)(F)F)cc2)n1` [Compound 85]: the results for the viability at 10 µM with SKBR-3 (setting [1]), with MDA-MB231 (setting [2]) and in the series on MCF-7 (setting [3]) were 77%, 90% and 99%, respectively.
As to `Cc1ccc(Nc2nc(N)nc(-c3ccc(F)cc3)n2)cc1` [Compound 28], the viability at 10 µM in the series with SKBR-3 (setting [1]) came to 90%; with MDA-MB231 (setting [2]), 99%; with MCF-7 (setting [3]) it was 88%.
As for `COc1ccc(-c2nc(N)nc(Nc3ccc(Br)cc3)n2)cc1` [Compound 76], the viability at 10 µM in the series on SKBR-3 (setting [1]) turned out to be 100%; in the series on MDA-MB231 (setting [2]) it was 96%; in the series on MCF-7 (setting [3]), 91%.
The matching figures for `COc1ccc(Nc2nc(N)nc(-c3ccc(C)cc3)n2)cc1` [Compound 66]: 89%, 83% and 100%.
Consider `COc1ccc(Nc2nc(N)nc(-c3ccc(Cl)cc3)n2)cc1` [Compound 42], for which the viability at 10 µM in the series on SKBR-3 (setting [1]) turned out to be 90%; in the series with MDA-MB231 (setting [2]), 61%; with MCF-7 (setting [3]) it was 85%.
The like results for `COc1ccc(Nc2nc(N)nc(-c3ccc(C(C)(C)C)cc3)n2)cc1` [Compound 109] were, in that order, 85%, 91% and 93%.
Consider `CC(C)(C)c1ccc(-c2nc(N)nc(Nc3ccccc3)n2)cc1` [Compound 105], for which the results for the viability at 10 µM with SKBR-3 (setting [1]), in the series with MDA-MB231 (setting [2]) and in the series on MCF-7 (setting [3]) were 100%, 74% and 96%, respectively.
On to `Nc1nc(Nc2ccc(F)cc2)nc(-c2ccc(Br)cc2)n1` [Compound 47], for which the results for the viability at 10 µM in the series with SKBR-3 (setting [1]), in the series on MDA-MB231 (setting [2]) and with MCF-7 (setting [3]) were 98%, 58% and 100%, respectively.
The matching figures for `COc1ccc(-c2nc(N)nc(Nc3ccc(OC(F)(F)F)cc3)n2)cc1` [Compound 79]: 84%, 74% and 95%.
For the molecule `COc1ccc(-c2nc(N)nc(Nc3ccc(Cl)cc3)n2)cc1` [Compound 75], the figures for the viability at 10 µM in the series on SKBR-3 (setting [1]), with MDA-MB231 (setting [2]) and in the series on MCF-7 (setting [3]) were 100%, 99% and 100%, respectively.
With `Nc1nc(Nc2ccccc2Cl)nc(-c2ccc(F)cc2)n1` [Compound 24], the figures for the viability at 10 µM with SKBR-3 (setting [1]), in the series with MDA-MB231 (setting [2]) and in the series on MCF-7 (setting [3]) were 75%, 75% and 91%, respectively.
Take `CC(C)c1ccc(Nc2nc(N)nc(-c3ccc(F)cc3)n2)cc1` [Compound 32]: the viability at 10 µM in the series with SKBR-3 (setting [1]) was determined as 100%; in the series on MDA-MB231 (setting [2]), 94%; with MCF-7 (setting [3]), 84%.
Turning to `Nc1nc(Nc2ccc(OC(F)(F)F)cc2)nc(-c2ccccc2)n1` [Compound 10], the viability at 10 µM in the series on SKBR-3 (setting [1]) stood at 86%; in the series with MDA-MB231 (setting [2]), 96%; with MCF-7 (setting [3]), 92%.
The like results for `COc1ccc(-c2nc(N)nc(Nc3ccc(F)cc3)n2)cc1` [Compound 72] were, in that order, 100%, 68% and 100%.
As for `Nc1nc(Nc2ccccc2)nc(-c2ccccc2)n1` [Compound 1], the viability at 10 µM in the series with SKBR-3 (setting [1]) is 81%; in the series with MDA-MB231 (setting [2]), 87%; with MCF-7 (setting [3]), 90%.
As to `Cc1ccc(-c2nc(N)nc(Nc3ccc(OC(F)(F)F)cc3)n2)cc1` [Compound 67], the viability at 10 µM in the series with SKBR-3 (setting [1]) was 84%; in the series on MDA-MB231 (setting [2]) it was 92%; with MCF-7 (setting [3]), 93%.
The like results for `CC(C)(C)c1ccc(-c2nc(N)nc(Nc3ccc(Cl)cc3)n2)cc1` [Compound 107] were, in that order, 92%, 100% and 98%.
Regarding “N ^2-(4-Methoxyphenyl)-6-(4-methylphenyl)-1,3,5-triazine-2,4-diamine [Compound 65]”, the “Percentage of cell viability SKBR-3” value in the series with SKBR-3 (setting [2]) was 88%. Besides, the “Percentage of cell viability MDA-MB231” value in the series on MDA-MB231 (setting [2]) was determined as 97%. Also, the “Percentage of cell viability MCF-7” value in the series on MCF-7 (setting [2]) is listed as 87%.
For `Cc1ccc(Nc2nc(N)nc(-c3ccccc3)n2)cc1` [Compound 7], the viability at 10 µM in the series on SKBR-3 (setting [1]) is 87%; in the series on MDA-MB231 (setting [2]), 98%; in the series on MCF-7 (setting [3]), 87%.
For the molecule `Nc1nc(Nc2ccc(Br)cc2)nc(-c2ccc(OCc3ccccc3)cc2)n1` [Compound 112], the viability at 10 µM in the series on SKBR-3 (setting [1]) came out at 93%; with MDA-MB231 (setting [2]), 82%; with MCF-7 (setting [3]), 97%.
The like results for `Nc1nc(Nc2cccc(Cl)c2)nc(-c2ccc(F)cc2)n1` [Compound 25] were, in that order, 88%, 73% and 95%.
Consider `Nc1nc(Nc2cccnc2)nc(-c2ccc(Cl)cc2)n1` [Compound 45], for which the viability at 10 µM with SKBR-3 (setting [1]) came to 74%; in the series on MDA-MB231 (setting [2]), 99%; in the series on MCF-7 (setting [3]), 89%.
The matching figures for `Nc1nc(Nc2ccc(Cl)cc2)nc(-c2ccccc2)n1` [Compound 5]: 94%, 65% and 100%.
The matching figures for `Cc1cccc(-c2nc(N)nc(Nc3ccc(Br)cc3)n2)c1` [Compound 55]: 96%, 83% and 75%.
For the molecule `Nc1nc(Nc2ccccc2F)nc(-c2ccc(Br)cc2)n1` [Compound 46], the viability at 10 µM in the series on SKBR-3 (setting [1]) was determined as 91%; in the series with MDA-MB231 (setting [2]), 75%; in the series on MCF-7 (setting [3]), 100%.
Regarding `Nc1nc(Nc2ccc(OC(F)(F)F)cc2)nc(-c2ccc(OCc3ccccc3)cc2)n1` [Compound 114], the viability at 10 µM in the series on SKBR-3 (setting [1]) amounted to 87%; in the series with MDA-MB231 (setting [2]) it was 71%; in the series with MCF-7 (setting [3]), 100%.
For `COc1ccccc1Nc1nc(N)nc(-c2ccccc2)n1` [Compound 8], the values for the viability at 10 µM in the series on SKBR-3 (setting [1]), in the series with MDA-MB231 (setting [2]) and in the series on MCF-7 (setting [3]) were 97%, 78% and 91%, respectively.
In the case of `COc1ccccc1Nc1nc(N)nc(-c2ccc(Br)cc2)n1` [Compound 51], the figures for the viability at 10 µM in the series on SKBR-3 (setting [1]), in the series with MDA-MB231 (setting [2]) and in the series on MCF-7 (setting [3]) were 89%, 88% and 96%, respectively.
`Nc1nc(Nc2ccccc2)nc(-c2cccc(F)c2)n1` [Compound 13]: the viability at 10 µM in the series on SKBR-3 (setting [1]) is 100%; in the series with MDA-MB231 (setting [2]), 100%; with MCF-7 (setting [3]) it was 89%.
Take `Nc1nc(Nc2ccc(Cl)cc2)nc(-c2ccc(F)cc2)n1` [Compound 26]: the viability at 10 µM with SKBR-3 (setting [1]) was determined as 98%; with MDA-MB231 (setting [2]), 67%; in the series with MCF-7 (setting [3]) it was 87%.
For `Cc1cn(-c2cc(NC(=O)c3ccc(C)c(Nc4nccc(-c5cccnc5)n4)c3)cc(C(F)(F)F)c2)cn1` [Nilotinib, reference compound], the GI50 turned out to be 9.6 ± 0.51 µM with SKBR-3 (Homo sapiens, SK-BR-3, 72 h, mean of three independent experiments ± SEM) and 0.04 ± 0.001 µM in the series on MDA-MB231.
Turning to `Nc1nc(Nc2ccccc2)nc(-c2ccc(OC(F)(F)F)cc2)n1` [Compound 89], the results for the viability at 10 µM in the series with SKBR-3 (setting [1]), in the series with MDA-MB231 (setting [2]) and in the series on MCF-7 (setting [3]) were 90%, 59% and 95%, respectively.
The like results for `CC(C)c1ccc(Nc2nc(N)nc(-c3ccc(Cl)cc3)n2)cc1` [Compound 44] were, in that order, 97%, 100% and 96%.
The matching figures for `Nc1nc(Nc2ccccc2)nc(-c2ccc(C(F)(F)F)cc2)n1` [Compound 82]: 97%, 55% and 96%.
The matching figures for `Nc1nc(Nc2ccccc2Cl)nc(-c2cccs2)n1` [Compound 118]: 78%, 100% and 91%.
For `COc1ccccc1Nc1nc(N)nc(-c2ccc(C(F)(F)F)cc2)n1` [Compound 87], the viability at 10 µM came out at 85% in the series with SKBR-3 (setting [1]), 63% with MDA-MB231 (setting [2]) and 100% in the series with MCF-7 (setting [3]).
As for `Nc1nc(Nc2ccc(Cl)cc2)nc(-c2ccc(Br)cc2)n1` [Compound 49], the viability at 10 µM amounted to 100% in the series with SKBR-3 (setting [1]), 96% with MDA-MB231 (setting [2]) and 100% with MCF-7 (setting [3]).
With `CN(Cc1cnc2nc(N)nc(N)c2n1)c1ccc(C(=O)N[C@@H](CCC(=O)O)C(=O)O)cc1` [Methotrexate, reference compound], the 50% growth inhibitory concentration (GI50) with MDA-MB231 was 0.01 ± 0.001 µM; in the series with MCF-7 (Homo sapiens, MCF7, 72 h, mean of three independent experiments ± SEM), 5.79 ± 0.47 µM.

Usually viability stands for the share of living cells, or the viability signal relative to a control. For orientation: GI50 means the concentration at which growth is held to half of that of the control.
